From article PMC5852267, “Influence of quaternary cation compound on the size of the Escherichia coli small multidrug resistance protein, EmrE” (Biochemistry and Biophysics Reports, 2018)

These compounds were tested against T1, EmrE (EmrE-Myc-His6; His6-myc-EmrE) (Escherichia coli, UniProt P23895) (assay: biochemical). Settings: not given.
T1 construct: plasmid pTZEmrEmH6; E. coli C43(DE3); dimer considered minimal functional unit
Format: binding

T1 sequence (P23895 whole entry): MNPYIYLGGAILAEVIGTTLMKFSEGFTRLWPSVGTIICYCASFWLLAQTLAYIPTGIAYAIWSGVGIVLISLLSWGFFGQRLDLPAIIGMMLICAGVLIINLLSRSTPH

Row | Structure (SMILES) | Kd
1 | CN(C)c1ccc(C(=C2C=CC(=[N+](C)C)C=C2)c2ccc(N(C)C)cc2)cc1 [CV, Crystal Violet] | 16 ± 5.7 µM
2 | Nc1ccc2cc3ccc(N)cc3nc2c1 [PRO, Proflavine] | 14 ± 5 µM
3 | CCN=c1cc2oc3cc(NCC)c(C)cc3c(-c3ccccc3C(=O)OCC)c-2cc1C [RH, Rhodamine 6 G] | 12 ± 1.4 µM
4 | Cc1cc(N)c2ccccc2[n+]1CCCCCCCCCC[n+]1c(C)cc(N)c2ccccc21 [DC, Dequalinium chloride] | 11 ± 2.2 µM
5 | CC[n+]1c(-c2ccccc2)c2cc(N)ccc2c2ccc(N)cc21 [EB, Ethidium bromide] | 1 ± 0.3 µM

Same assay, conditions: read-out: Kd

Row | Structure (SMILES) | Kd
6 | c1ccc([P+](c2ccccc2)(c2ccccc2)c2ccccc2)cc1 [TPP, Tetraphenylphosphonium chloride] | 5 ± 3.7 µM
7 | C[n+]1ccc(-c2cc[n+](C)cc2)cc1 [MV, Methyl Viologen] | 179 ± 19.9 µM
8 | CCCCCCCCCCCCCCCC[N+](C)(C)Cc1ccccc1 [CTC, Cetalkonium chloride (Banjela) (16 Chain)] | 407 ± 133 µM
